This passage reports PFA results from ChEMBL document CHEMBL1124311, “Synthesis and antiallergy activity of 4-(diarylhydroxymethyl)-1-[3-(aryloxy)propyl]piperidines and structurally related compounds” (J Med Chem, 1989).

Format in all cases: functional, organism-based
Experiment [1] relates to Rattus norvegicus. Nature of the experiment: Oral antiallergy activity in the passive foot anaphylaxis (PFA) model of rat, at a dose of 10 (mg/kg); Activity between positive and negative control groups.
For experiment [2], the system named is Rattus norvegicus. Nature of the experiment: Oral antiallergy activity in the passive foot anaphylaxis (PFA) model of rat, at a dose of 3.16 (mg/kg); not significantly different from negative control group.
The subject of experiment [3] is Rattus norvegicus. Nature of the experiment: Oral antiallergy activity in the passive foot anaphylaxis (PFA) model of rat, at a dose of 10 (mg/kg); not significantly different from negative control group.
For experiment [4], the system named is Rattus norvegicus. Nature of the experiment: Oral antiallergy activity in the passive foot anaphylaxis (PFA) model of rat, at a dose of 3.16 (mg/kg); Activity between positive and negative control groups.

On to `COc1cccc(OC)c1OCCCN1CCC(C(O)(c2ccc(F)cc2)c2ccc(F)cc2)CC1`, for which the PFA entry in experiment [1] was “Activity between positive and negative control groups”; in experiment [2] it was “Activity between positive and negative control groups”.
As for `COc1cc(OCCCN2CCC(C(O)(c3ccc(F)cc3)c3ccc(F)cc3)CC2)ccc1C(C)=O`, the PFA entry in experiment [1] is “Activity between positive and negative control groups”.
Consider `OC(c1ccc(F)cc1)(c1ccc(F)cc1)C1CCN(CCCOc2ccc(F)cc2)CC1`, for which the PFA result in experiment [3] was “Not significantly different from negative control group”.
Still for that read-out and setting: then `COc1cc(C(C)=O)ccc1OCCCN1CCCC(C(O)(c2ccc(F)cc2)c2ccc(F)cc2)C1` (stereo unspecified), with “Not significantly different from negative control group”; and `COc1cc(C(C)=O)ccc1OCCCN1CCC(C(O)(c2cccc(F)c2)c2cccc(F)c2)CC1`, with “Not significantly different from negative control group”.
For `OC(c1ccc(F)cc1)(c1ccc(F)cc1)C1CCN(CCCSc2ccccc2)CC1`, the PFA entry in experiment [1] is “Activity between positive and negative control groups”.
In the case of `OC(c1ccc(F)cc1)(c1ccc(F)cc1)C1CCN(CCCOc2ccc(-c3ccccc3)cc2)CC1`, the PFA result in experiment [3] was “Not significantly different from negative control group”.
`COc1cc(C(C)=O)ccc1OCCCN1CCC(C(O)(c2ccc(Cl)cc2)c2ccc(Cl)cc2)CC1`: the PFA entry in experiment [3] was “Not significantly different from negative control group”.
On the same count and under the same terms, the result for `COc1cc(C(C)=O)ccc1OCCCN1CCC(Cc2ccccc2)CC1` reads “Not significantly different from negative control group”.
For `CC(=O)c1ccccc1OCCCN1CCC(C(O)(c2ccc(F)cc2)c2ccc(F)cc2)CC1`, the PFA result in experiment [1] was “Activity between positive and negative control groups”; in experiment [2], “Activity between positive and negative control groups”.
For the compound `OC(c1ccc(F)cc1)(c1ccc(F)cc1)C1CCN(CCCOc2ccc(Cl)cc2)CC1`, the PFA entry in experiment [3] is “Not significantly different from negative control group”.
In the case of `CN(CCCN1CCC(C(O)(c2ccc(F)cc2)c2ccc(F)cc2)CC1)c1ccccc1`, the PFA entry in experiment [1] was “Activity between positive and negative control groups”; in experiment [4] it was “Activity between positive and negative control groups”.
In the case of `NS(=O)(=O)c1ccc(OCCCN2CCC(C(O)(c3ccc(F)cc3)c3ccc(F)cc3)CC2)cc1`, the PFA entry in experiment [1] was “Activity between positive and negative control groups”; in experiment [2] it was “Activity between positive and negative control groups”.
In the case of `COc1cc(C(C)=O)ccc1OCCCN1CCC(C(O)(c2ccc(C)cc2)c2ccc(C)cc2)CC1`, in experiment [3], the PFA result was “Not significantly different from negative control group”.
Still for that read-out and setting: then `COc1cc(C(C)=O)ccc1OCCCN1CCC(C(C#N)(c2ccccc2)c2ccccc2)CC1`, with “Not significantly different from negative control group”.
Regarding `OC(c1ccc(F)cc1)(c1ccc(F)cc1)C1CCN(CCCC2OCOC2c2ccccc2)CC1` (stereo unspecified), in experiment [1], the PFA entry was “Activity between positive and negative control groups”.
With `O=S(=O)(CCCN1CCC(C(O)(c2ccc(F)cc2)c2ccc(F)cc2)CC1)c1ccccc1`, in experiment [3], the PFA result was “Not significantly different from negative control group”.
As for `CC(=O)c1cccc(OCCCN2CCC(C(O)(c3ccc(F)cc3)c3ccc(F)cc3)CC2)c1`, the PFA result is “Activity between positive and negative control groups” in experiment [1]; “Activity between positive and negative control groups” in experiment [2].
`COc1ccc(C(O)(c2ccc(OC)cc2)C2CCN(CCCOc3ccc(C(C)=O)cc3OC)CC2)cc1`: in experiment [3], the PFA result was “Not significantly different from negative control group”.
On the same count and under the same terms, then `COc1cc(C(C)=O)ccc1OCCCCCCN1CCC(C(O)(c2ccc(F)cc2)c2ccc(F)cc2)CC1`, with “Not significantly different from negative control group”.
The same measure, in the same setting: then `COc1cc(C(C)=O)ccc1OCCCN1CCC(C(C(N)=O)(c2ccccc2)c2ccccc2)CC1`, with “Not significantly different from negative control group”.
Consider `COc1cc(C(C)=O)ccc1OCCCN1CCCCC1`, for which the PFA entry in experiment [3] is “Not significantly different from negative control group”.
Still for that read-out and setting: the result for `COc1cc(C(C)=O)ccc1OCCCN1CCC(C(O)(c2ccc(F)cc2)c2ccc(F)cc2)C1` (stereo unspecified) reads “Not significantly different from negative control group”; that for `N#Cc1ccc(OCCCN2CCC(C(O)(c3ccc(F)cc3)c3ccc(F)cc3)CC2)cc1`, “Not significantly different from negative control group”.
With `COc1cccc(OCCCN2CCC(C(O)(c3ccc(F)cc3)c3ccc(F)cc3)CC2)c1`, the PFA result in experiment [1] is “Activity between positive and negative control groups”; in experiment [2], “Activity between positive and negative control groups”.
For `COc1cc(C(C)=O)ccc1OCCCN1CCC(c2ccccc2)CC1`, in experiment [3], the PFA entry was “Not significantly different from negative control group”.
The same measure, in the same setting: the result for `COC(=O)c1ccc(OCCCN2CCC(C(O)(c3ccccc3)c3ccccc3)CC2)cc1` reads “Not significantly different from negative control group”.
Turning to `COc1cc(C(C)=O)ccc1OCCCCCN1CCC(C(O)(c2ccc(F)cc2)c2ccc(F)cc2)CC1`, the PFA entry in experiment [1] is “Activity between positive and negative control groups”; in experiment [4] it was “Activity between positive and negative control groups”.
In the case of `CCOC(=O)c1cccc(OCCCN2CCC(C(O)(c3ccc(F)cc3)c3ccc(F)cc3)CC2)c1`, the PFA result in experiment [1] was “Activity between positive and negative control groups”; in experiment [2], “Activity between positive and negative control groups”.
As to `COc1cc(C(C)=O)ccc1OCCCN1CCC(CC(O)(c2ccc(F)cc2)c2ccc(F)cc2)C1` (stereo unspecified), the PFA entry in experiment [3] was “Not significantly different from negative control group”.
Same read-out and setting: the result for `CCN(CCCOc1ccc(C(C)=O)cc1OC)CCCC(O)(c1ccc(F)cc1)c1ccc(F)cc1` reads “Not significantly different from negative control group”.
Turning to `CCOC(=O)C(=O)Nc1ccc(OCCCN2CCC(C(O)(c3ccc(F)cc3)c3ccc(F)cc3)CC2)cc1`, the PFA result in experiment [3] was “Not significantly different from negative control group”.
`COc1cc(C(C)=O)ccc1OCCCN1CCN(C(=O)c2ccccc2)CC1`: the PFA result in experiment [3] is “Not significantly different from negative control group”.
Turning to `O=C(c1ccccc1)c1ccc(OCCCN2CCC(C(O)(c3ccc(F)cc3)c3ccc(F)cc3)CC2)cc1`, the PFA entry was “Activity between positive and negative control groups” in experiment [1]; “Activity between positive and negative control groups” in experiment [2].
As to `COc1cc(C(C)=O)ccc1OCCCN1CCC(C(O)(c2ccc(F)c(F)c2)c2ccc(F)c(F)c2)CC1`, in experiment [3], the PFA entry is “Not significantly different from negative control group”.
As to `CC(C)(C)c1ccc(OCCCN2CCC(C(O)(c3ccc(F)cc3)c3ccc(F)cc3)CC2)cc1`, the PFA result in experiment [3] was “Not significantly different from negative control group”.
For `OC(c1ccc(F)cc1)(c1ccc(F)cc1)C1CCN(CCCNc2ccccc2)CC1`, the PFA result was “Activity between positive and negative control groups” in experiment [1]; “Activity between positive and negative control groups” in experiment [4].
With `COc1cc(C(C)=O)ccc1OCCCN1CCC(C(O)(c2ccccc2)c2cccc(C(F)(F)F)c2)CC1` (stereo unspecified), the PFA entry in experiment [3] is “Not significantly different from negative control group”.
As for `CC(C)c1ccc(OCCCN2CCC(C(O)(c3ccc(F)cc3)c3ccc(F)cc3)CC2)cc1`, the PFA entry in experiment [1] was “Activity between positive and negative control groups”; in experiment [2] it was “Activity between positive and negative control groups”.
On to `COc1cc(C(C)=O)ccc1OCCCN1CCC(C(OC)(c2ccccc2)c2ccccc2)CC1`, for which the PFA entry in experiment [4] was “Activity between positive and negative control groups”.
With `Cc1ccccc1OCCCN1CCC(C(O)(c2ccc(F)cc2)c2ccc(F)cc2)CC1`, the PFA result in experiment [1] is “Activity between positive and negative control groups”.
The same measure, in the same setting: then `OC(c1ccc(F)cc1)(c1ccc(F)cc1)C1CCN(CCCOc2ccccc2OCc2ccccc2)CC1`, with “Activity between positive and negative control groups”.
Take `C[S+]([O-])c1ccc(OCCCN2CCC(C(O)(c3ccc(F)cc3)c3ccc(F)cc3)CC2)cc1` (stereo unspecified): the PFA entry in experiment [1] was “Activity between positive and negative control groups”; in experiment [2], “Activity between positive and negative control groups”.
On to `COc1cc(C(C)=O)ccc1OCCCN1CCC(C(O)(c2ccccc2)C2CCCCC2)CC1` (stereo unspecified), for which the PFA entry in experiment [3] was “Not significantly different from negative control group”.
Turning to `COc1cc(C(C)=O)ccc1OCCCN1CCCC(CC(O)(c2ccc(F)cc2)c2ccc(F)cc2)C1` (stereo unspecified), in experiment [3], the PFA entry is “Not significantly different from negative control group”.
Same read-out and setting: then `COc1cc(C(C)=O)ccc1OCCCN1CCC(C(O)(Cc2ccc(F)cc2)c2ccc(F)cc2)CC1` (stereo unspecified), with “Not significantly different from negative control group”; and `COc1cc(C(C)=O)ccc1OCCCN1CCC(CC(O)(c2ccc(F)cc2)c2ccc(F)cc2)CC1`, with “Not significantly different from negative control group”; and `O=C(CCCN1CCC(C(O)(c2ccc(F)cc2)c2ccc(F)cc2)CC1)c1ccccc1`, with “Not significantly different from negative control group”.
On to `COc1cc(C(C)=O)ccc1OCCCN1CCN(Cc2ccccc2)CC1`, for which the PFA entry in experiment [3] was “Not significantly different from negative control group”.
`COc1cc(C(C)=O)ccc1OCCCN1CCC(C(O)(c2ccc(F)cc2)c2ccccn2)CC1` (stereo unspecified): in experiment [4], the PFA result is “Activity between positive and negative control groups”.
As for `COC(=O)c1ccc(OCCCCN2CCC(C(O)(c3ccc(F)cc3)c3ccc(F)cc3)CC2)cc1`, the PFA entry in experiment [1] is “Activity between positive and negative control groups”; in experiment [2], “Activity between positive and negative control groups”.
As to `OC(CCCN1CCC(C(O)(c2ccc(F)cc2)c2ccc(F)cc2)CC1)c1ccccc1` (stereo unspecified), the PFA result in experiment [1] was “Activity between positive and negative control groups”; in experiment [4], “Activity between positive and negative control groups”.
